“Also recorded” adds a separate entry of the source. Where no end group is shown, it is not given here. [ ]: non-standard residue; d: D form.
Assays:
[1] = Heparin binding activity, Hi Trap Heparin HP column, NaCl step elution; details: for fraction number: 500 μl fractions of heparin column elution; for [NaCl] for elution: heparin column
Description: Liquid chromatography was used to determine the relative levels of heparin binding activity of the individual heparin binding domains and of the anti-angiogenic miniproteins that contains them. In this assay, the strength of the heparin binding activity is proportional to the amount of NaCl that is required to elute the peptide bound to the heparin column. Peptides with low binding activity are eluted with lower NaCl concentration, whereas higher concentrations of NaCl are required for peptides with higher binding activity.
Hi Trap Heparin HP column (1 ml, Amersham Biosciences) was equilibrated with 10 column volumes (CV) of equilibration (EQ) buffer=10 mM NaH2PO4 pH 7. All buffers were loaded onto columns via syringes. 500 μl fractions are collected (flow rate=1 ml/minute). 500 μg of peptide (1 mg/ml, resuspended in EQ buffer) was added to each column and the flow through was collected for analysis. The columns were then washed with 3 CV of EQ buffer. Peptides are then eluted with a step gradient of 500, 625, 750, 875 mM NaCl in EQ buffer, 2 CV per each step. A final step of 3 CV of 1000 mM NaCl in EQ buffer was collected in 500 μl fractions. The A210 nm was measured using EQ and elution buffers as blanks.

[2] = test system: Human Umbilical Vein Endothelial Cells; experiment: bFGF-mediated survival/proliferation of human umbilical vein endothelial cells (WST1); type: cell-based; details: FIG. 6, 9, 10, 17
Protocol: (§1) The anti-angiogenic activities of the peptides were tested by measuring the level of inhibition of VEGF and bFGF mediated survival/proliferation of Bovine Retinal Endothelial Cells (BRE), Human Dermal Microvasculature Endothelial Cells, and Human Umbilical Vein Endothelial Cells, all of which are standard cell lines used to test anti-angiogenic compounds.
Human umbilical cord endothelial (HUVEC) cells were maintained in Cambrex EGM-2MV media. On day one, cells were starved overnight in 1% FBS in M200 media (Cascade Biologicals). The morning after, the media were replaced with serum-free media (control) or media containing 25 ng/ml of human VEGF165 and the various peptides to final concentrations as described.
(§2) In all cases, after 72 hours incubation, the amount of live cells in each well was measured with the WST1 assay (Roche).

[3] = test system: L1210 murine leukemia cells; experiment: L1210 murine leukemia intravenous model, survival; type: in vivo, mouse; details: dosed IP, FIG. 15a; for Survival: DBA/2 mice
Protocol: Antitumor activity of test peptides, administered intraperitoneally (IP), were evaluated against L1210 murine leukemia cells implanted intravenously (IV) in DBA/2 mice.
Studies generally consisted of randomly-assigned groups of 8 mice per group, which were inoculated IV with 1×10^5 cells per mouse from an in vivo leukemia cell line. In addition to groups tested with test peptides, studies usually included a vehicle-treated control group and a positive control group treated with an agent known to be active in the L1210 leukemia model. Starting one day after tumor inoculation (inoculation day defined as Day 0), mice were treated IP with either vehicle or test peptides in various schedules. Generally this consisted of treatment every other day for approximately 1 week (e.g., Days 1, 3, 5 and 7). A positive agent (e.g., cyclophosphamide) was usually given as a single IP injection on Day 1. All dosing solutions were prepared on each day of treatment. Survival was monitored daily and body weights were measured twice weekly. Anti-tumor activity was assessed by the increase in lifespan of the treated groups in comparison to the vehicle-treated control group. Studies with the L1210 leukemia model were limited to 30 days.

[4] = test system: VEGF binding to its receptor; experiment: Inhibition of binding of radiolabeled VEGF to endothelial cells; details: 30 μM; for VEGF binding inhibition: FIG. 7 legend
Protocol: The activity of the peptides SEQ ID NO.: 1 and SEQ ID NO.: 2 in blocking the binding of radiolabeled VEGF to endothelial cells is shown in FIG. 7.
FIG. 7 illustrates the inhibition of VEGF binding to its receptor by two miniproteins wherein a heparin binding domain is linked to an integrin binding domain. […] Both peptides achieved an almost 100% inhibition at a concentration of 30 μM.

[5] = test system: Bovine Retinal Endothelial Cells (BRE); experiment: VEGF-mediated survival/proliferation of bovine retinal endothelial cells (WST1); type: cell-based; details: VEGF 25 ng/ml, 72 hours; for Inhibition of VEGF-mediated survival/proliferation: FIG. 4 and 5
Protocol: as §1
Bovine retinal endothelial (BRE) cells were maintained in Cambrex EG2 media. For non-adherent cell assays, on day one cells were starved for either 6 hours or overnight, then trypsinized and plated in 96-well plates in 100 μl of Optimem plus 1% fetal bovine serum (FBS). One hundred μl of Optimem plus 1% FBS was added to the wells containing, where appropriate, VEGF to a final concentration of 25 ng/ml, and the various peptides to final concentrations as described. For adherent cells, cells were plated in 96-well plates in complete media, allowed to adhere overnight, washed in starvation media (Optimem plus 1% FBS) and then starved during the day. At the end of the day, 100 μl of Optimem plus 1% FBS was added to the wells containing, where appropriate, VEGF to a final concentration of 25 ng/ml and the various peptides to final concentrations as described.
as §2

B16-F1 melanoma cells = experiment: Subcutaneous B16 melanoma tumor growth in vivo; parameters: species or system mouse
Protocol: Because of the importance of the angiogenic process for tumorigenesis, miniproteins as described herein, were hypothesized to show good anti-tumor activity. The peptides of the invention were tested in an in vivo model of anti-tumor activity. This model compares the growth of subcutaneous B16 melanoma tumor in vivo either untreated or treated with various amount of miniproteins described in this application. This model is widely accepted in the art as a model to test the anti-tumor activity of compounds that inhibit tumor growth because they have anti-angiogenic activity.
Male C57BL/6 mice were obtained with a mean body weight of 20±2 g. Mouse B16-F1 melanoma cells were implanted subcutaneously (5×10^5 cell per animal). Peptides (formulated in water) were administered ip daily at the amount indicated starting the day after cells injection. In general, tumors became palpable around 9 days after injection of cells. Tumor were then measured every 2 days.

[6] = step gradient in 10 mM NaH2PO4 pH 7
[7] = 20 mg/kg daily IP, vs untreated controls, FIG. 12 and 14

## RRGRAAKKKRRGRAAKKKRLGYVVSDGRGDYP [ST100,074]
[1]
  fraction number: 27-28
[1]; [6]
  [NaCl] for elution: 1000 mM
[2]
  Inhibition of bFGF-mediated survival: the most active in inhibiting bFGF stimulation
[3]
  Survival: statistically significant increases in survival
  mice (cured mice) that survived longer than 30 days: Sixty to eighty

## RRGRAAKKKRRGRAAKKKPSQSSHPPLSTA (listed as Homo sapiens) [ST100,072]
[1]
  fraction number: 26-27
[1]; [6]
  [NaCl] for elution: 1000 mM
[2]
  Inhibition of bFGF-mediated survival: more potent in blocking bFGF stimulation

## RKGRRKGRRKGRRKGRRKGKK ([dR][dK]G[dR][dR][dK]G[dR][dR][dK]G[dR][dR][dK]G[dR][dR][dK]G[dK][dK]; listed as Homo sapiens) [ST100,087]
[1]
  heparin binding activity (comparison in words): even greater increase in heparin binding
  fraction number: 35-36
[1]; [6]
  [NaCl] for elution: 1500 mM

## RRQRRRGRRRQRRRGKK (listed as Homo sapiens) [ST100,090]
[1]
  heparin binding activity (comparison in words): even greater increase in heparin binding
  fraction number: 33-34
[1]; [6]
  [NaCl] for elution: 1300 mM

## RRGRARRGRARRGRARRGKK ([dR][dR]G[dR][dA][dR][dR]G[dR][dA][dR][dR]G[dR][dA][dR][dR]G[dK][dK]; listed as Homo sapiens) [ST100,085]
[1]
  fraction number: 31-32
[1]; [6]
  [NaCl] for elution: 1100 mM

## RAAKKRARAAKKRARAAKKRLGYVVSDGRGDYP (listed as Homo sapiens) [ST100,079]
[1]; [6]
  [NaCl] for elution: 1000 mM

## YDGRGDSVVYGLKKKAARGRRAARGRR [ST100,032]
[4]
  inhibition of VEGF binding: ~100%
  VEGF binding inhibition: completely abolished VEGF binding

## PYAGRGDSVVYGLGGGPGAARGRRAARGRR [ST100,033]
[4]
  inhibition of VEGF binding: ~100%
  VEGF binding inhibition: completely abolished VEGF binding

## RRGRAARRGRAAKKKPSQSSHPPLSTA (listed as Homo sapiens) [ST100,068]
[1]; [6]
  [NaCl] for elution: 875 mM
[5]
  Inhibition of VEGF-mediated survival/proliferation: VEGF stimulation was inhibited with increasing doses; also recorded: more potent in blocking VEGF stimulation
B16-F1 melanoma cells; 20 mg/kg and 40 mg/kg daily IP, FIG. 13
  Inhibition of tumor growth: able to inhibit tumor growth

## RRGRRRGRRRGRRRGKK (listed as Homo sapiens) [ST100,089]
[1]
  heparin binding activity (comparison in words): even greater increase in heparin binding
  fraction number: 34-35
[1]; unit given as M
  [NaCl] for elution: 1300 mM

## RKRAARARKRAARARKRAARR (listed as Homo sapiens) [ST100,083]
[1]; [6]
  [NaCl] for elution: 1100 mM

## RLGYVVSDGRGDYPKKKRRGRAARRGRAA [ST100,065, middle rotated replaced version of ST100,061]
[1]
  heparin binding activity (comparison in words): bind less strongly than ST100,082
[1]; [6]
  [NaCl] for elution: 750 mM
[3]
  Survival: statistically significant increases in survival
  mice (cured mice) that survived longer than 30 days: Sixty to eighty

## RRGRRRGRRRGRRRGKKPSQSSHPPLSTA ([dR][dR]G[dR][dR][dR]G[dR][dR][dR]G[dR][dR][dR]G[dK][dK][dP][dS][dQ][dS][dS][dH][dP][dP][dL][dS][dT][dA]; listed as Homo sapiens) [ST100,093]
[2]
  Inhibition of bFGF-mediated survival: more potent than similar peptides with weaker heparin binding domains

## RRGRAARRGRAARRGRAAKKKPSQSSHPPLSTA (listed as Homo sapiens) [ST100,073]
[1]
  fraction number: 26-27
[1]; [6]
  [NaCl] for elution: 1000 mM
[2]
  Inhibition of bFGF-mediated survival: more potent in blocking bFGF stimulation; also recorded: the most active in inhibiting bFGF stimulation
B16-F1 melanoma cells; [7]
  Inhibition of tumor growth: able to inhibit tumor growth

## RKKAARARKKAARARKKAARRLGYVVSDGRGDYP (listed as Homo sapiens) [ST100,081]
[1]
  fraction number: 26-27
[1]; [6]
  [NaCl] for elution: 1000 mM

## RRGRAAKKKRRGRAAKKK (listed as Homo sapiens) [ST100,082]
[1]
  fraction number: 26-27
[1]; [6]
  [NaCl] for elution: 1000 mM

## ATSLPPHSSQSPGGGPPAARGRRAARGRR (listed as Homo sapiens) [ST100,062]
B16-F1 melanoma cells; 20 mg/kg daily IP, FIG. 12
  P (ANOVA) of tumor growth inhibition: > 0.05
B16-F1 melanoma cells; [7]
  Inhibition of tumor growth: clearly inhibit tumor growth

## ATSLPPHSSQSP (listed as Homo sapiens) [ST100,038]
[5]; FIG. 4
  Concentration that completely abolished VEGF-induced increase in WST-1 value: above 40 μM
[5]
  Inhibition of VEGF-mediated survival/proliferation: caused the amount of WST-1 to decrease

From patent publication US20060172941A1, “Anti-angiogenic peptides and methods of use thereof” (priority 2004, published 2006)
